This note sets out measurements from ChEMBL document CHEMBL1201862, “PubChem BioAssay data set” (2004).

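Exposure lasted 48 hours, with cells grown in 96-well plates and compounds tested at five concentrations. The concentration for 50% growth inhibition is given as GI50.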 The source made the active and inactive calls. Cut-off read from the data, not from the text of the source: active = GI50 up to about 1.1 µM and inactive = higher.

Test systems include UO-31; RPMI-8226; MDA-MB-231; SK-MEL-5; KM12; SK-OV-3; OVCAR-8; LOX IMVI; A549; MDA-N; HOP-62; Hs-578T; SR; HT-29; M14; IGROV-1; CAKI-1; SF-295; DU-145; NCI-H226.
Holding throughout (experiment): DTP human tumour cell line panel, 48 h

A word on the GI50: it is the concentration giving 50% growth inhibition. On to `CCCCCCCCCCCCCCCCCCNC(=O)OCC(CNS(=O)(=O)CCC[n+]1cccc2ccccc21)COC` (centres undefined), for which the GI50 in the assay with UO-31 is 27.9 µM (inactive); in the assay on RPMI-8226, 1.37 µM (inactive); in the assay on MDA-MB-231, 1.82 µM (inactive); with SK-MEL-5, 2.06 µM (inactive); with KM12 it was 1.84 µM (inactive); in the assay on SK-OV-3, 2.49 µM (inactive). The GI50 in the assay on OVCAR-8 was 2.07 µM (inactive); in the assay with LOX IMVI it was 2.01 µM (inactive); with A549, 1.47 µM (inactive); in the assay on MDA-N it was 1.81 µM (inactive); in the assay on HOP-62 it was 3.76 µM (inactive); in the assay on Hs-578T, 2 µM (inactive). Moreover, the GI50 in the assay on SR is 2.04 µM (inactive); in the assay on HT-29 it was 0.565 µM (active); with M14, 3.7 µM (inactive); in the assay with IGROV-1, 1.17 µM (inactive); in the assay with CAKI-1 it was 7.82 µM (inactive); in the assay on SF-295 it was 2.6 µM (inactive). The GI50 in the assay on DU-145 is 12.4 µM (inactive); with NCI-H226, 1.05 µM (active).
Consider `Cc1ccc(C2NC(=O)c3ccccc3N2)c(C)c1` (centres undefined), for which the GI50 is 6.81 µM (inactive) with UO-31; 0.807 µM (active) with RPMI-8226; 7.4 µM (inactive) in the assay on MDA-MB-231; 0.951 µM (active) in the assay with SK-MEL-5; 3.21 µM (inactive) in the assay on KM12; 2.22 µM (inactive) with SK-OV-3. Further, the GI50 was 5.28 µM (inactive) in the assay with OVCAR-8; 4.76 µM (inactive) in the assay on LOX IMVI; 5.65 µM (inactive) with A549; 0.174 µM (active) in the assay with MDA-N; 5.13 µM (inactive) in the assay with HOP-62; 2.4 µM (inactive) in the assay with Hs-578T. Moreover, the GI50 with SR is 0.807 µM (active); in the assay with HT-29, 2.19 µM (inactive); with M14 it was 2.16 µM (inactive); in the assay with IGROV-1 it was 4.62 µM (inactive); in the assay with CAKI-1, 2.56 µM (inactive); in the assay with SF-295 it was 2.15 µM (inactive). For the same compound, the GI50 with DU-145 was 5.71 µM (inactive); in the assay on NCI-H226, 6.1 µM (inactive).
On to `c1c[nH]c(C23C4C5C6C4C2C6C53)n1` (centres undefined), for which the GI50 in the assay on UO-31, with RPMI-8226, in the assay on MDA-MB-231, in the assay with SK-MEL-5, in the assay with KM12 and with SK-OV-3 was > 100 µM (inactive) in each case. The GI50 in the assay on OVCAR-8, with LOX IMVI, in the assay on A549, in the assay on MDA-N, in the assay with HOP-62 and with Hs-578T was > 100 µM (inactive) each time. Moreover, the GI50 in the assay on SR, in the assay on HT-29, in the assay on M14, with IGROV-1, with CAKI-1 and in the assay on SF-295 was > 100 µM (inactive) each time. The GI50 in the assay on DU-145 and with NCI-H226 was > 100 µM (inactive) in each case.
Consider `CCOc1ccc(NC(=O)C(=O)C(/C(=N/N)C(=O)OC)c2nc3ccc([N+](=O)[O-])cc3nc2O)cc1` (centres undefined), for which the GI50 with UO-31 is > 100 µM (inactive); in the assay on RPMI-8226 it was 24.2 µM (inactive); in the assay on MDA-MB-231, > 100 µM (inactive); in the assay on SK-MEL-5, > 100 µM (inactive); with KM12, > 100 µM (inactive); in the assay with SK-OV-3 it was > 100 µM (inactive). Also, the GI50 with OVCAR-8, in the assay on LOX IMVI, in the assay with A549, in the assay on MDA-N, in the assay with HOP-62 and in the assay with Hs-578T was > 100 µM (inactive) each time. Besides, the GI50 with SR is 70 µM (inactive); with HT-29 it was > 100 µM (inactive); with M14, > 100 µM (inactive); in the assay with IGROV-1 it was > 100 µM (inactive); with CAKI-1 it was > 100 µM (inactive); with SF-295 it was > 100 µM (inactive). Besides, the GI50 in the assay with DU-145 and in the assay with NCI-H226 was > 100 µM (inactive) throughout.
With `Cc1cc2cc3cc(C)c(N)cc3nc2cc1N` [ACRIDINE YELLOW], the GI50 in the assay on UO-31 was 0.979 µM (active); in the assay with RPMI-8226 it was 0.217 µM (active); in the assay with MDA-MB-231, 0.211 µM (active); in the assay with SK-MEL-5 it was 2.27 µM (inactive); in the assay on KM12 it was 0.508 µM (active); in the assay on SK-OV-3, 1.34 µM (inactive). The GI50 with OVCAR-8 was 0.518 µM (active); in the assay on LOX IMVI it was 0.478 µM (active); with A549 it was 0.509 µM (active); in the assay with MDA-N, 1.57 µM (inactive); with HOP-62, 0.465 µM (active); in the assay with Hs-578T it was 1.75 µM (inactive). Also, the GI50 is 0.209 µM (active) in the assay with SR; 0.359 µM (active) with HT-29; 3.53 µM (inactive) with M14; 0.244 µM (active) in the assay with IGROV-1; 0.791 µM (active) with CAKI-1; 0.693 µM (active) in the assay with SF-295. Further, the figures for the GI50 with DU-145 and in the assay with NCI-H226 were 0.647 µM (active) and 0.869 µM (active), respectively.
Consider `OC(c1nc2ccccc2[nH]1)C(O)C(O)C(O)c1nc2ccccc2[nH]1` (centres undefined), for which the GI50 in the assay with UO-31, with RPMI-8226, with MDA-MB-231, with SK-MEL-5, with KM12 and in the assay with SK-OV-3 was > 100 µM (inactive) in each case. Besides, the GI50 in the assay with OVCAR-8 was > 100 µM (inactive); in the assay on LOX IMVI it was > 100 µM (inactive); with A549, > 100 µM (inactive); with MDA-N, > 100 µM (inactive); in the assay on HOP-62, > 100 µM (inactive); in the assay on Hs-578T it was 91.4 µM (inactive). In addition, the GI50 with SR, in the assay on HT-29, with M14, in the assay on IGROV-1, in the assay on CAKI-1 and in the assay with SF-295 was > 100 µM (inactive) in each case. The GI50 in the assay on DU-145 and in the assay on NCI-H226 was > 100 µM (inactive) in each case.
On to `CCOC(=O)CNC(=O)C(CSC(=O)N(O)c1ccc(Br)cc1)NC(=O)CCC(N)C(=O)OCC` (centres undefined), for which the GI50 with UO-31 is > 50 µM (inactive); in the assay on RPMI-8226, 21 µM (inactive); in the assay on MDA-MB-231, > 50 µM (inactive); in the assay with SK-MEL-5 it was > 50 µM (inactive); with KM12 it was 45.8 µM (inactive); in the assay on SK-OV-3 it was > 50 µM (inactive). For the same compound, the GI50 was > 50 µM (inactive) with OVCAR-8; 40.1 µM (inactive) in the assay on LOX IMVI; > 50 µM (inactive) in the assay on A549; > 50 µM (inactive) in the assay on MDA-N; > 50 µM (inactive) in the assay with HOP-62; > 50 µM (inactive) in the assay on Hs-578T. Besides, the GI50 in the assay on SR, with HT-29, in the assay on M14, with IGROV-1, in the assay on CAKI-1 and in the assay on SF-295 was > 50 µM (inactive) each time. The GI50 in the assay on DU-145 and with NCI-H226 was > 50 µM (inactive) in each case.
In the case of `Fc1cc(-c2cc(-c3ccccc3)n[nH]2)c(Cl)cc1Cl`, the GI50 in the assay with UO-31 is > 100 µM (inactive); with RPMI-8226, 30.9 µM (inactive); with MDA-MB-231, 55.5 µM (inactive); in the assay on SK-MEL-5 it was > 100 µM (inactive); with KM12, > 100 µM (inactive); in the assay on SK-OV-3 it was > 100 µM (inactive). Moreover, the GI50 was > 100 µM (inactive) with OVCAR-8; 99.1 µM (inactive) in the assay on LOX IMVI; > 100 µM (inactive) with A549; > 100 µM (inactive) with MDA-N; 64.4 µM (inactive) with HOP-62; > 100 µM (inactive) in the assay with Hs-578T. The GI50 in the assay on SR was > 100 µM (inactive); with HT-29, > 100 µM (inactive); with M14, > 100 µM (inactive); in the assay on IGROV-1, 1.77 µM (inactive); in the assay on CAKI-1, > 100 µM (inactive); in the assay on SF-295, > 100 µM (inactive). Moreover, the values for the GI50 in the assay with DU-145 and in the assay on NCI-H226 were > 100 µM (inactive) and 50.7 µM (inactive), respectively.
Regarding `CC1CCc2c(c(CC3CC(=O)NC(=O)C3)nn2-c2ccccc2)C1` (centres undefined), the GI50 is 55.6 µM (inactive) in the assay on UO-31; 80.5 µM (inactive) in the assay with RPMI-8226; > 100 µM (inactive) with MDA-MB-231; > 100 µM (inactive) in the assay on SK-MEL-5; > 100 µM (inactive) with KM12; > 100 µM (inactive) with SK-OV-3. Also, the GI50 is 93.8 µM (inactive) in the assay with OVCAR-8; > 100 µM (inactive) in the assay on LOX IMVI; > 100 µM (inactive) in the assay on A549; > 100 µM (inactive) in the assay on MDA-N; > 100 µM (inactive) in the assay with HOP-62; > 100 µM (inactive) in the assay on Hs-578T. The GI50 in the assay on SR, in the assay with HT-29, with M14, with IGROV-1, in the assay with CAKI-1 and in the assay on SF-295 was > 100 µM (inactive) each time. Besides, the GI50 in the assay with DU-145 and in the assay on NCI-H226 was > 100 µM (inactive) each time.
As to `COc1ccc(C(OC(C)=O)C2C(=C(C#N)C#N)c3ccccc3C2=C(C#N)C#N)cc1` (centres undefined), the GI50 in the assay on UO-31 is 28 µM (inactive); in the assay with RPMI-8226 it was 25.5 µM (inactive); in the assay on MDA-MB-231, 39.5 µM (inactive); in the assay with SK-MEL-5 it was 48 µM (inactive); in the assay with KM12, 43.7 µM (inactive); in the assay with SK-OV-3 it was 18.6 µM (inactive). Also, the GI50 in the assay with OVCAR-8 was 60.7 µM (inactive); in the assay with LOX IMVI it was 33.9 µM (inactive); in the assay with MDA-N it was 42.1 µM (inactive); in the assay with HOP-62, 20.8 µM (inactive); in the assay with Hs-578T it was 35.6 µM (inactive); with SR it was 16.1 µM (inactive). The GI50 in the assay on HT-29 was 29.9 µM (inactive); in the assay on M14 it was 40.7 µM (inactive); in the assay on IGROV-1 it was 65.6 µM (inactive); in the assay on CAKI-1 it was 39.6 µM (inactive); in the assay on SF-295, 19.9 µM (inactive); with DU-145, 64.9 µM (inactive). In addition, the GI50 with NCI-H226 is 38.6 µM (inactive).
